Measurements taken from US20240101570A1 (AMGEN INC., priority 2020, published 2024).

Assays:
HCT116 MTAP null cells = experiment: HCT116 MTAP null cell proliferation / viability (CellTiter-Glo, 6 days); type: cell-based; conditions: HCT116-MTAP null, 144 h, HCT116 MTAP null cells, 6 days, CellTiter-Glo; read-out: HCT-116 MTAP null IC50
Method in brief: (§1)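 Viability read by CellTiter-Glo after 6-day compound exposure of MTAP-null and wild-type HCT116 cells grown in RPMI 1640 with 10% FBS. Dosing used 1:3 steps from 1 or 10 μM (8-9 points) or 1:2 steps from 10 or 50 μM (22 points); IC50 taken where fitted curve crosses 50% of control.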

HCT116 WT cells = experiment: HCT116 WT cell proliferation / viability (CellTiter-Glo, 6 days); type: cell-based; conditions: Homo sapiens, HCT-116, 144 h, HCT116 WT cells, 6 days, CellTiter-Glo; read-out: HCT-116 WT IC50
Method in brief: as §1

Row | Compound | IC50 (HCT116 MTAP null cells) [nM] | IC50 (HCT116 WT cells) [nM]
1 | N#Cc1ccc(CN(CC2(C#N)CC2)C(=O)c2ccc3nc(N)c4c(c3c2)COC4)nc1 [Example 457, 4-amino-N-((1-cyanocyclopropyl)methyl)-N-((5-cyano-2-pyridinyl)methyl)-1,3-dihydrofuro[3,4-c]quinoline-8-carboxamide] | 132 | 3180
2 | C[C@H](c1ncccn1)N(Cc1ccc(C2CC2)nn1)C(=O)c1ccc2nc(N)c3c(c2c1)COC3 [Example 458, 4-amino-N-((6-cyclopropyl-3-pyridazinyl)methyl)-N-((1R)-1-(2-pyrimidinyl)ethyl)-1,3-dihydrofuro[3,4-c]quinoline-8-carboxamide] | 26 | 361
3 | N#Cc1ccc(CN(C(=O)c2cc3c4c(c(N)nc3cc2Cl)COC4)C2CC2)nc1 [Example 461, 4-amino-7-chloro-N-((5-cyano-2-pyridinyl)methyl)-N-cyclopropyl-1,3-dihydrofuro[3,4-c]quinoline-8-carboxamide] | 69 | 4500
4 | COc1ccc(CN(C(=O)c2ccc3nc(N)c4c(c3c2)COC4)C(C)C)nc1Cl [Example 462, 4-amino-N-((6-chloro-5-methoxy-2-pyridinyl)methyl)-N-(2-propanyl)-1,3-dihydrofuro[3,4-c]quinoline-8-carboxamide] | 105 | 3940
5 | COC[C@@H](C)N(Cc1ccc(Br)nn1)C(=O)c1ccc2nc(N)c3c(c2c1)COC3 [Example 463, 4-amino-N-((6-bromo-3-pyridazinyl)methyl)-N-((2R)-1-methoxy-2-propanyl)-1,3-dihydrofuro[3,4-c]quinoline-8-carboxamide] | 14 | 440
6 | Nc1nc2cc(Cl)c(C(=O)N(Cc3ccc(C(F)(F)F)cn3)CC3CC3)cc2c2c1COC2 [Example 464, 4-amino-7-chloro-N-(cyclopropylmethyl)-N-((5-(trifluoromethyl)-2-pyridinyl)methyl)-1,3-dihydrofuro[3,4-c]quinoline-8-carboxamide] | 7 | 240
7 | CC(C)N(Cc1ccc(OC(F)(F)F)cn1)C(=O)c1ccc2nc(N)c3c(c2c1)CO[C@@H]3C [Example 465, (3R)-4-amino-3-methyl-N-(2-propanyl)-N-((5-(trifluoromethoxy)-2-pyridinyl)methyl)-1,3-dihydrofuro[3,4-c]quinoline-8-carboxamide] | 31 | 1230
8 | C[C@H](c1ncn(C)n1)N(Cc1ccc(C(F)F)cn1)C(=O)c1ccc2nc(N)c3c(c2c1)CO[C@@H]3C [Example 466, (3R)-4-amino-N-((5-(difluoromethyl)-2-pyridinyl)methyl)-3-methyl-N-((1R)-1-(1-methyl-1H-1,2,4-triazol-3-yl)ethyl)-1,3-dihydrofuro[3,4-c]quinoline-8-carboxamide] | 28 | 217
9 | C[C@H]1OCc2c1c(N)nc1ccc(C(=O)N(Cc3ccc(C(F)(F)F)cn3)c3cnn(C)c3)cc21 [Example 467, (3R)-4-amino-3-methyl-N-(1-methyl-1H-pyrazol-4-yl)-N-((5-(trifluoromethyl)-2-pyridinyl)methyl)-1,3-dihydrofuro[3,4-c]quinoline-8-carboxamide] | 14 | 332
10 | COC[C@@H](C)N(Cc1ccc(Br)nn1)C(=O)c1ccc2nc(N)c3c(c2c1)CO[C@@H]3C [Example 468, (3R)-4-amino-N-((6-bromo-3-pyridazinyl)methyl)-N-((2R)-1-methoxy-2-propanyl)-3-methyl-1,3-dihydrofuro[3,4-c]quinoline-8-carboxamide] | 8 | 208
11 | C[C@H](c1ncccn1)N(Cc1cc2c(cn1)OCCC2)C(=O)c1ccc2nc(N)c3c(c2c1)COC3 [Example 469, 4-amino-N-(3,4-dihydro-2H-pyrano [2,3-c]pyridin-6-ylmethyl)-N-((1R)-1-(2-pyrimidinyl)ethyl)-1,3-dihydrofuro[3,4-c]quinoline-8-carboxamide] | 25 | 550
12 | CN(Cc1ccc(C(F)(F)F)cn1)C(=O)c1cc2c3c(c(N)nc2cc1Cl)COC3 [Example 470, 4-amino-7-chloro-N-methyl-N-((5-(trifluoromethyl)-2-pyridinyl)methyl)-1,3-dihydrofuro[3,4-c]quinoline-8-carboxamide] | 41 | 3020
13 | Nc1nc2ccc(C(=O)N(Cc3ccc(C(F)(F)F)cn3)C34CC(C3)C4)cc2c2c1COC2 [Example 471, 4-amino-N-(bicyclo[1.1.1]pentan-1-yl)-N-((5-(trifluoromethyl)-2-pyridinyl)methyl)-1,3-dihydrofuro[3,4-c]quinoline-8-carboxamide] | 43 | 1160
14 | CN(Cc1ccc(C#N)cn1)C(=O)c1cc2c3c(c(N)nc2cc1Cl)COC3 [Example 472, 4-amino-7-chloro-N-((5-cyano-2-pyridinyl)methyl)-N-methyl-1,3-dihydrofuro[3,4-c]quinoline-8-carboxamide] | 267 | 14900
15 | N#Cc1ccc(CN(CC2CC2)C(=O)c2cc3c4c(c(N)nc3cc2Cl)COC4)nc1 [Example 474, 4-amino-7-chloro-N-((5-cyano-2-pyridinyl)methyl)-N-(cyclopropylmethyl)-1,3-dihydrofuro[3,4-c]quinoline-8-carboxamide] | 30 | 1330
16 | CN(Cc1ccc(C(F)(F)F)cn1)C(=O)c1cc2c3c(c(N)nc2cc1F)COC3 [Example 475, 4-amino-7-fluoro-N-methyl-N-((5-(trifluoromethyl)-2-pyridinyl)methyl)-1,3-dihydrofuro[3,4-c]quinoline-8-carboxamide] | 375 | 7810
17 | N#Cc1ccc(CN(C(=O)c2cc3c4c(c(N)nc3cc2F)COC4)C2CC2)nc1 [Example 476, 4-amino-N-((5-cyano-2-pyridinyl)methyl)-N-cyclopropyl-7-fluoro-1,3-dihydrofuro[3,4-c]quinoline-8-carboxamide] | 1370 | 4460
18 | CC(C)N(Cc1ccc(C#N)cn1)C(=O)c1cc2c3c(c(N)nc2cc1F)COC3 [Example 477, 4-amino-N-((5-cyano-2-pyridinyl)methyl)-7-fluoro-N-(2-propanyl)-1,3-dihydrofuro[3,4-c]quinoline-8-carboxamide] | 655 | 19400
19 | CN(Cc1ccc(C2CC2)cn1)C(=O)c1cc2c3c(c(N)nc2cc1Cl)COC3 [Example 478, 4-amino-7-chloro-N-((5-cyclopropyl-2-pyridinyl)methyl)-N-methyl-1,3-dihydrofuro[3,4-c]quinoline-8-carboxamide] | 82 | 9580
20 | CN(Cc1ccc(C#N)cn1)C(=O)c1cc2c3c(c(N)nc2cc1F)COC3 [Example 479, 4-amino-N-((5-cyano-2-pyridinyl)methyl)-7-fluoro-N-methyl-1,3-dihydrofuro[3,4-c]quinoline-8-carboxamide] | 328 | 17100
21 | Nc1nc2cc(Cl)c(C(=O)N(Cc3ccc(C4CC4)cn3)C3CC3)cc2c2c1COC2 [Example 480, 4-amino-7-chloro-N-cyclopropyl-N-((5-cyclopropyl-2-pyridinyl)methyl)-1,3-dihydrofuro[3,4-c]quinoline-8-carboxamide] | 272 | 1450
22 | C[C@H]1OCc2c1c(N)nc1ccc(C(=O)N(Cc3ccc(C(F)(F)F)cn3)CC(F)(F)F)cc21 [Example 481, (3R)-4-amino-3-methyl-N-(2,2,2-trifluoroethyl)-N-((5-(trifluoromethyl)-2-pyridinyl)methyl)-1,3-dihydrofuro[3,4-c]quinoline-8-carboxamide] | 74 | 5710
23 | CCOc1ccc(CN(C(=O)c2ccc3nc(N)c4c(c3c2)CO[C@@H]4C)C23CC(C2)C3)nn1 [Example 482, (3R)-4-amino-N-(bicyclo[1.1.1]pentan-1-yl)-N-((6-ethoxy-3-pyridazinyl)methyl)-3-methyl-1,3-dihydrofuro[3,4-c]quinoline-8-carboxamide] | 52 | 2640
24 | Nc1nc2ccc(C(=O)N(Cc3ccc(C(F)(F)F)cn3)CC(F)(F)F)cc2c2c1COC2 [Example 483, 4-amino-N-(2,2,2-trifluoroethyl)-N-((5-(trifluoromethyl)-2-pyridinyl)methyl)-1,3-dihydrofuro[3,4-c]quinoline-8-carboxamide] | 458 | 7290
25 | CC(C)N(Cc1ccc(C(F)(F)F)cn1)C(=O)c1cc2c3c(c(N)nc2cc1Cl)COC3 [Example 484, 4-amino-7-chloro-N-(2-propanyl)-N-((5-(trifluoromethyl)-2-pyridinyl)methyl)-1,3-dihydrofuro[3,4-c]quinoline-8-carboxamide] | 20 | 402
26 | C[C@H]1OCc2c1c(N)nc1ccc(C(=O)N(C)Cc3ccc(C(F)(F)F)nn3)cc21 [Example 485, (3R)-4-amino-N,3-dimethyl-N-((6-(trifluoromethyl)-3-pyridazinyl)methyl)-1,3-dihydrofuro[3,4-c]quinoline-8-carboxamide] | 365 | 32100
27 | Nc1nc2cnc(C(=O)N(Cc3ccc(C(F)(F)F)cn3)CC(F)(F)F)cc2c2c1COC2 [Example 486, 4-amino-N-(2,2,2-trifluoroethyl)-N-((5-(trifluoromethyl)-2-pyridinyl)methyl)-1,3-dihydrofuro[3,4-c][1,7]naphthyridine-8-carboxamide] | 445 | 17500
28 | C[C@H]1OCc2c1c(N)nc1ccc(C(=O)N(Cc3ccc(C(F)(F)F)cn3)C3CCOCC3)cc21 [Example 489, (3R)-4-amino-3-methyl-N-(tetrahydro-2H-pyran-4-yl)-N-((5-(trifluoromethyl)-2-pyridinyl)methyl)-1,3-dihydrofuro[3,4-c]quinoline-8-carboxamide] | 276 | 5210
